Measurements published in PubChem BioAssay (NCI).
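Following 48 hours of exposure in 96-well plates, responses at five concentrations were used to interpolate endpoints linearly. TGI marks complete inhibition of growth.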

Tests used:
Experiment in all cases: growth of human tumour cells (NCI), 48 h
NCI-H460 lung = test system: NCI-H460 lung
SNB-75 CNS = test system: SNB-75 CNS
SK-OV-3 ovarian = test system: SK-OV-3 ovarian
M14 melanoma = test system: M14 melanoma
PC-3 prostate = test system: PC-3 prostate
SW-620 colon = test system: SW-620 colon
HCT-116 colon = test system: HCT-116 colon
OVCAR-4 ovarian = test system: OVCAR-4 ovarian
OVCAR-3 ovarian = test system: OVCAR-3 ovarian
HS 578T breast = test system: HS 578T breast
UO-31 renal = test system: UO-31 renal
TK-10 renal = test system: TK-10 renal
OVCAR-5 ovarian = test system: OVCAR-5 ovarian
MDA-MB-435 = test system: MDA-MB-435
SF-268 CNS = test system: SF-268 CNS
COLO 205 colon = test system: COLO 205 colon
786-0 renal = test system: 786-0 renal
SF-295 CNS = test system: SF-295 CNS
HCT-15 colon = test system: HCT-15 colon
SK-MEL-28 melanoma = test system: SK-MEL-28 melanoma
CCRF-CEM leukemia = test system: CCRF-CEM leukemia
OVCAR-8 ovarian = test system: OVCAR-8 ovarian
HT29 colon = test system: HT29 colon
SNB-19 CNS = test system: SNB-19 CNS
K-562 leukemia = test system: K-562 leukemia
HCC-2998 colon = test system: HCC-2998 colon
NCI-H226 lung = test system: NCI-H226 lung
RXF 393 renal = test system: RXF 393 renal
SK-MEL-2 melanoma = test system: SK-MEL-2 melanoma
A498 renal = test system: A498 renal
HOP-62 NSCLC = test system: HOP-62 NSCLC
LOX IMVI melanoma = test system: LOX IMVI melanoma
NCI-H23 lung = test system: NCI-H23 lung
BT-549 breast = test system: BT-549 breast
MALME-3M melanoma = test system: MALME-3M melanoma
SK-MEL-5 melanoma = test system: SK-MEL-5 melanoma
SF-539 CNS = test system: SF-539 CNS
U251 CNS = test system: U251 CNS
IGROV1 ovarian = test system: IGROV1 ovarian
KM12 colon = test system: KM12 colon
UACC-62 melanoma = test system: UACC-62 melanoma
NCI/ADR-RES ovarian = test system: NCI/ADR-RES ovarian
ACHN renal = test system: ACHN renal
EKVX NSCLC = test system: EKVX NSCLC
MOLT-4 leukemia = test system: MOLT-4 leukemia
T-47D breast = test system: T-47D breast
A549 NSCLC = test system: A549 NSCLC
HOP-92 NSCLC = test system: HOP-92 NSCLC
DU-145 prostate = test system: DU-145 prostate
SN12C renal = test system: SN12C renal
MDA-N = test system: MDA-N
MDA-MB-231 breast = test system: MDA-MB-231 breast
HL-60(TB) leukemia = test system: HL-60(TB) leukemia
CAKI-1 renal = test system: CAKI-1 renal
UACC-257 melanoma = test system: UACC-257 melanoma
NCI-H522 lung = test system: NCI-H522 lung
MCF7 breast = test system: MCF7 breast
RPMI-8226 leukemia = test system: RPMI-8226 leukemia
SR leukemia = test system: SR leukemia

`C#CC[C@@H]1C(=O)N(Cc2ccc(OC)cc2)[C@@H](C(C)C)C(=O)N1Cc1ccc(OC)cc1` was tested, and the TGI (NCI-H460 lung) was > 100 µM, the TGI (SNB-75 CNS) was 95 µM and the TGI (SK-OV-3 ovarian) was > 100 µM. For the same molecule, the TGI (M14 melanoma) was > 100 µM, the TGI (PC-3 prostate) was > 100 µM and the TGI (SW-620 colon) was > 100 µM. For the same molecule, the TGI (HCT-116 colon) was > 100 µM, the TGI (OVCAR-4 ovarian) was > 100 µM and the TGI (OVCAR-3 ovarian) was > 100 µM. For the same molecule, the TGI (HS 578T breast) was > 100 µM, the TGI (UO-31 renal) was > 100 µM and the TGI (TK-10 renal) was > 100 µM. For the same molecule, the TGI (OVCAR-5 ovarian) was > 100 µM, the TGI (MDA-MB-435) was > 100 µM and the TGI (SF-268 CNS) was > 100 µM. The TGI (COLO 205 colon) was 37 µM, the TGI (786-0 renal) was > 100 µM and the TGI (SF-295 CNS) was > 100 µM. For the same molecule, the TGI (HCT-15 colon) was > 100 µM, the TGI (SK-MEL-28 melanoma) was > 100 µM and the TGI (CCRF-CEM leukemia) was 36.2 µM. For the same molecule, the TGI (OVCAR-8 ovarian) was > 100 µM, the TGI (HT29 colon) was 55.1 µM and the TGI (SNB-19 CNS) was > 100 µM. The TGI (K-562 leukemia) was > 100 µM, the TGI (HCC-2998 colon) was > 100 µM and the TGI (NCI-H226 lung) was > 100 µM. The TGI (RXF 393 renal) was 25.6 µM, the TGI (SK-MEL-2 melanoma) was 55.1 µM and the TGI (A498 renal) was > 100 µM. For the same molecule, the TGI (HOP-62 NSCLC) was > 100 µM, the TGI (LOX IMVI melanoma) was > 100 µM and the TGI (NCI-H23 lung) was > 100 µM. For the same molecule, the TGI (BT-549 breast) was 93.7 µM, the TGI (MALME-3M melanoma) was > 100 µM and the TGI (SK-MEL-5 melanoma) was 30.3 µM. For the same molecule, the TGI (SF-539 CNS) was > 100 µM, the TGI (U251 CNS) was > 100 µM and the TGI (IGROV1 ovarian) was > 100 µM. The TGI (KM12 colon) was > 100 µM, the TGI (UACC-62 melanoma) was > 100 µM and the TGI (NCI/ADR-RES ovarian) was > 100 µM. The TGI (ACHN renal) was > 100 µM, the TGI (EKVX NSCLC) was 69 µM and the TGI (MOLT-4 leukemia) was 34.7 µM. For the same molecule, the TGI (T-47D breast) was 51.1 µM, the TGI (A549 NSCLC) was > 100 µM and the TGI (HOP-92 NSCLC) was > 100 µM. For the same molecule, the TGI (DU-145 prostate) was > 100 µM, the TGI (SN12C renal) was > 100 µM and the TGI (MDA-N) was 67.1 µM. The TGI (MDA-MB-231 breast) was > 100 µM, the TGI (HL-60(TB) leukemia) was 8.53 µM and the TGI (CAKI-1 renal) was > 100 µM. For the same molecule, the TGI (UACC-257 melanoma) was > 100 µM, the TGI (NCI-H522 lung) was 99.5 µM and the TGI (MCF7 breast) was 54.9 µM.
For `CC(C)(O)/C1=C/C=C/CCCCCCCCCC1`, the TGI (NCI-H460 lung) was > 100 µM, the TGI (SNB-75 CNS) was 2.85 µM and the TGI (SK-OV-3 ovarian) was > 100 µM. For the same molecule, the TGI (M14 melanoma) was > 100 µM, the TGI (PC-3 prostate) was > 100 µM and the TGI (SW-620 colon) was > 100 µM. The TGI (RPMI-8226 leukemia) was > 100 µM, the TGI (HCT-116 colon) was > 100 µM and the TGI (OVCAR-3 ovarian) was > 100 µM. For the same molecule, the TGI (HS 578T breast) was 7.78 µM, the TGI (SR leukemia) was > 100 µM and the TGI (UO-31 renal) was > 100 µM. For the same molecule, the TGI (TK-10 renal) was > 100 µM, the TGI (OVCAR-5 ovarian) was > 100 µM and the TGI (MDA-MB-435) was > 100 µM. The TGI (SF-268 CNS) was > 100 µM, the TGI (COLO 205 colon) was > 100 µM and the TGI (SF-295 CNS) was > 100 µM. The TGI (HCT-15 colon) was > 100 µM, the TGI (SK-MEL-28 melanoma) was > 100 µM and the TGI (CCRF-CEM leukemia) was > 100 µM. For the same molecule, the TGI (OVCAR-8 ovarian) was > 100 µM, the TGI (HT29 colon) was > 100 µM and the TGI (SNB-19 CNS) was > 100 µM. The TGI (K-562 leukemia) was > 100 µM, the TGI (HCC-2998 colon) was > 100 µM and the TGI (NCI-H226 lung) was > 100 µM. For the same molecule, the TGI (SK-MEL-2 melanoma) was > 100 µM, the TGI (A498 renal) was > 100 µM and the TGI (HOP-62 NSCLC) was > 100 µM. The TGI (LOX IMVI melanoma) was > 100 µM, the TGI (NCI-H23 lung) was > 100 µM and the TGI (BT-549 breast) was > 100 µM. For the same molecule, the TGI (MALME-3M melanoma) was > 100 µM, the TGI (SK-MEL-5 melanoma) was 1.73 µM and the TGI (U251 CNS) was > 100 µM. The TGI (IGROV1 ovarian) was > 100 µM, the TGI (KM12 colon) was > 100 µM and the TGI (UACC-62 melanoma) was > 100 µM. The TGI (NCI/ADR-RES ovarian) was > 100 µM, the TGI (ACHN renal) was > 100 µM and the TGI (EKVX NSCLC) was > 100 µM. The TGI (MOLT-4 leukemia) was > 100 µM, the TGI (T-47D breast) was > 100 µM and the TGI (HOP-92 NSCLC) was > 100 µM. For the same molecule, the TGI (DU-145 prostate) was > 100 µM, the TGI (SN12C renal) was > 100 µM and the TGI (MDA-N) was > 100 µM. The TGI (MDA-MB-231 breast) was > 100 µM, the TGI (HL-60(TB) leukemia) was 98.6 µM and the TGI (CAKI-1 renal) was > 100 µM. For the same molecule, the TGI (UACC-257 melanoma) was > 100 µM, the TGI (NCI-H522 lung) was > 100 µM and the TGI (MCF7 breast) was > 100 µM.
